Test: log P determination by HPLC (EEC Directive 79/831 Annex V.A8, gradient method)
Assay type: physicochemical
Details: for chromatographic logP: HPLC gradient method, acetonitrile/0.1% strength aqueous phosphoric acid or formic acid, preparation examples, read-out: log P

With COCC(C)NC(=O)/C=C/c1c(-c2ccccc2Cl)nc2sc(C(F)(F)F)nn12 (racemic) [Example 0169] the “Physical data (logP)” value was 2.99.

For CC(NC(=O)/C=C/c1c(-c2ccccc2Cl)nc2sc(C(F)(F)F)nn12)c1ccccc1 (racemic) [Example 0189], the “Physical data (logP)” value was 3.81.

In the case of CC(COc1ccccc1)NC(=O)/C=C/c1c(-c2ccccc2Cl)nc2sc(C(F)(F)F)nn12 (racemic) [Example 0194], the “Physical data (logP)” value is reported as 4.03.

In the case of CC(ONC(=O)/C=C/c1c(-c2ccccc2Cl)nc2sc(C(F)(F)F)nn12)c1ccccc1 (racemic) [Example 0213], the “Physical data (logP)” value is reported as 3.72.

For COCC(C)NC(=O)/C=C/c1c(-c2ccccc2C)nc2sc(C(F)(F)F)nn12 (racemic) [Example 0240], the “Physical data: log P” value was 3.07.

In the case of CC(NC(=O)/C=C/c1c(-c2sccc2Cl)nc2sc(C(F)(F)F)nn12)C(F)(F)F (racemic) [Example 0922], the “Physical data: logP” value is reported as 3.65.

For CC(NC(=O)/C=C/c1c(-c2ccc(Cl)nc2)nc2sc(C(F)(F)F)nn12)C(F)(F)F (racemic) [Example 0935], the “Physical data: logP” value was 3.32.

In the case of CC(NC(=O)/C=C/c1c(-c2cccnc2Cl)nc2sc(C(F)(F)F)nn12)C(F)(F)F (racemic) [Example 0948], the “Physical data: logP” value is reported as 2.76.

For CC(NC(=O)/C=C/c1c(-c2ccccc2Cl)nc2sc(C(F)(F)C(F)(F)F)nn12)C(F)(F)F (racemic) [Example 0961], the “Physical data: logP” value was 4.07.

For CC(NC(=O)/C=C/c1c(-c2ccc(F)cc2Cl)nc2sc(C(F)(F)C(F)(F)F)nn12)C(F)(F)F (racemic) [Example 0974], the “Physical data: logP” value was 4.19.

In the case of CC(NC(=O)/C=C/c1c(-c2nccs2)nc2sc(C(F)(F)C(F)(F)F)nn12)C(F)(F)F (racemic) [Example 0987], the “Physical data: logP” value is reported as 3.81.

For CC(NC(=O)/C=C/c1c(-c2ccccc2Cl)nc2sc(C(F)(F)F)nn12)C(F)(F)F (single isomer, unassigned) [Example 0184], the “Physical data (logP)” value was 3.63.

With CC(NC(=O)/C=C/c1c(-c2ccccc2Cl)nc2sc(C(F)(F)F)nn12)C(F)(F)F (single isomer, unassigned) [Example 0185] the “Physical data (logP)” value was 3.77.

A chromatographic logP of 3.91 was found for CSC[C@H](C)NC(=O)/C=C/c1c(-c2ccc(Cl)cc2Cl)nc2sc(C(F)(F)F)nn12 [Example 0001, (2E)-3-[6-(2,4-Dichlorophenyl)-2-(trifluoromethyl)imidazo[2,1-b][1,3,4]thiadiazol-5-yl]-N-[(1S)-1-methyl-2-(methylthio)ethyl]acrylamide] in this work.

A chromatographic logP of 2.48 was found for C[C@@H](C[S+](C)[O-])NC(=O)/C=C/c1c(-c2ccc(Cl)cc2Cl)nc2sc(C(F)(F)F)nn12 (stereo partly drawn) [Example 0002, (2E)-3-[6-(2,4-Dichlorophenyl)-2-(trifluoromethyl)imidazo[2,1-b][1,3,4]thiadiazol-5-yl]-N-[(1S)-1-methyl-2-(methylsulphinyl)ethyl]acrylamide] in this work.

A chromatographic logP of 3.03 was found for C[C@@H](CS(C)(=O)=O)NC(=O)/C=C/c1c(-c2ccc(Cl)cc2Cl)nc2sc(C(F)(F)F)nn12 [Example 0003, (2E)-3-[6-(2,4-Dichlorophenyl)-2-(trifluoromethyl)imidazo[2,1-b][1,3,4]thiadiazol-5-yl]-N-[(1S)-1-methyl-2-(methylsulphonyl)ethyl]acrylamide] in this work.

For NC(=O)/C=C/c1c(-c2ccc(Cl)cc2)nc2sc(C(F)(F)F)nn12 [Example 0004], the “Physical data (logP)” value was 2.62.

For CNC(=O)/C=C/c1c(-c2ccc(Cl)cc2)nc2sc(C(F)(F)F)nn12 [Example 0005], the “Physical data (logP)” value was 2.88.

In the case of CCNC(=O)/C=C/c1c(-c2ccc(Cl)cc2)nc2sc(C(F)(F)F)nn12 [Example 0006], the “Physical data (logP)” value is reported as 3.25.

With CC(C)NC(=O)/C=C/c1c(-c2ccc(Cl)cc2)nc2sc(C(F)(F)F)nn12 [Example 0007] the “Physical data (logP)” value was 3.61.

For CC(C)(C)NC(=O)/C=C/c1c(-c2ccc(Cl)cc2)nc2sc(C(F)(F)F)nn12 [Example 0009], the “Physical data (logP)” value was 4.23.

With O=C(/C=C/c1c(-c2ccc(Cl)cc2)nc2sc(C(F)(F)F)nn12)NC1CC1 [Example 0011] the “Physical data (logP)” value was 3.31.

In the case of O=C(/C=C/c1c(-c2ccc(Cl)cc2)nc2sc(C(F)(F)F)nn12)NC1CCC1 [Example 0012], the “Physical data (logP)” value is reported as 3.81.

For O=C(/C=C/c1c(-c2ccc(Cl)cc2)nc2sc(C(F)(F)F)nn12)NC1CCCC1 [Example 013], the “Physical data (logP)” value was 4.03.

In the case of O=C(/C=C/c1c(-c2ccc(Cl)cc2)nc2sc(C(F)(F)F)nn12)NC1CCCCC1 [Example 0014], the “Physical data (logP)” value is reported as 4.37.

For O=C(/C=C/c1c(-c2ccc(Cl)cc2)nc2sc(C(F)(F)F)nn12)NCC1CC1 [Example 0015], the “Physical data (logP)” value was 3.72.

For CCC(C)NC(=O)/C=C/c1c(-c2ccc(Cl)cc2)nc2sc(C(F)(F)F)nn12 (stereo not drawn) [Example 0016], the “Physical data (logP)” value was 3.94.

For CCCC(C)NC(=O)/C=C/c1c(-c2ccc(Cl)cc2)nc2sc(C(F)(F)F)nn12 (stereo not drawn) [Example 0017], the “Physical data (logP)” value was 4.32.

In the case of COCC(C)NC(=O)/C=C/c1c(-c2ccc(Cl)cc2)nc2sc(C(F)(F)F)nn12 (stereo not drawn) [Example 0018], the “Physical data (logP)” value is reported as 4.27.

With CC(C)C(C)NC(=O)/C=C/c1c(-c2ccc(Cl)cc2)nc2sc(C(F)(F)F)nn12 (stereo not drawn) [Example 0023] the “Physical data (logP)” value was 4.25.

With CC(NC(=O)/C=C/c1c(-c2ccc(Cl)cc2)nc2sc(C(F)(F)F)nn12)c1ccccc1 (stereo not drawn) [Example 0038] the “Physical data (logP)” value was 4.32.

With CCC(NC(=O)/C=C/c1c(-c2ccc(Cl)cc2)nc2sc(C(F)(F)F)nn12)c1ccccc1 (stereo not drawn) [Example 0039] the “Physical data (logP)” value was 4.56.

With CC(COc1ccccc1)NC(=O)/C=C/c1c(-c2ccc(Cl)cc2)nc2sc(C(F)(F)F)nn12 (stereo not drawn) [Example 0043] the “Physical data (logP)” value was 4.51.

For CCC(NC(=O)/C=C/c1c(-c2ccc(Cl)cc2)nc2sc(C(F)(F)F)nn12)C1CCCCC1 (stereo not drawn) [Example 0045], the “Physical data (logP)” value was 5.31.

In the case of CC(NC(=O)/C=C/c1c(-c2ccc(Cl)cc2)nc2sc(C(F)(F)F)nn12)c1ccccn1 (stereo not drawn) [Example 0052], the “Physical data (logP)” value is reported as 2.77.

With O=C(/C=C/c1c(-c2ccc(Cl)cc2)nc2sc(C(F)(F)F)nn12)NOCC1CC1 [Example 0060] the “Physical data (logP)” value was 3.59.

For CC(ONC(=O)/C=C/c1c(-c2ccc(Cl)cc2)nc2sc(C(F)(F)F)nn12)c1ccccc1 (stereo not drawn) [Example 0062], the “Physical data (logP)” value was 4.18.

In the case of CCC(CC)NC(=O)/C=C/c1c(-c2ccc(Cl)cc2)nc2sc(C(F)(F)F)nn12 [Example 0064], the “Physical data (logP)” value is reported as 4.23.

With CN(C)C(=O)/C=C/c1c(-c2ccc(Cl)cc2)nc2sc(C(F)(F)F)nn12 [Example 0065] the “Physical data (logP)” value was 3.42.

In the case of CCN(CC)C(=O)/C=C/c1c(-c2ccc(Cl)cc2)nc2sc(C(F)(F)F)nn12 [Example 0070], the “Physical data (logP)” value is reported as 4.16.

With O=C(/C=C/c1c(-c2ccc(Cl)cc2)nc2sc(C(F)(F)F)nn12)N1CCCCC1 [Example 0071] the “Physical data (logP)” value was 4.31.

For O=C(/C=C/c1c(-c2ccc(Cl)cc2)nc2sc(C(F)(F)F)nn12)N1CCOCC1 [Example 0072], the “Physical data (logP)” value was 3.27.

With CC(C)NC(=O)/C=C/c1c(-c2cccc(Cl)c2)nc2sc(C(F)(F)F)nn12 [Example 0078] the “Physical data (logP)” value was 3.67.

For CC(C)(C)NC(=O)/C=C/c1c(-c2cccc(Cl)c2)nc2sc(C(F)(F)F)nn12 [Example 0080], the “Physical data (logP)” value was 4.27.

With O=C(/C=C/c1c(-c2cccc(Cl)c2)nc2sc(C(F)(F)F)nn12)NC1CC1 [Example 0082] the “Physical data (logP)” value was 3.31.

In the case of O=C(/C=C/c1c(-c2cccc(Cl)c2)nc2sc(C(F)(F)F)nn12)NC1CCC1 [Example 0083], the “Physical data (logP)” value is reported as 3.85.

For O=C(/C=C/c1c(-c2cccc(Cl)c2)nc2sc(C(F)(F)F)nn12)NC1CCCC1 [Example 0084], the “Physical data (logP)” value was 4.13.

For O=C(/C=C/c1c(-c2cccc(Cl)c2)nc2sc(C(F)(F)F)nn12)NC1CCCCC1 [Example 0085], the “Physical data (logP)” value was 4.46.

With O=C(/C=C/c1c(-c2cccc(Cl)c2)nc2sc(C(F)(F)F)nn12)NCC1CC1 [Example 0086] the “Physical data (logP)” value was 3.81.

With CCC(C)NC(=O)/C=C/c1c(-c2cccc(Cl)c2)nc2sc(C(F)(F)F)nn12 (stereo not drawn) [Example 0087] the “Physical data (logP)” value was 3.99.

For CCCC(C)NC(=O)/C=C/c1c(-c2cccc(Cl)c2)nc2sc(C(F)(F)F)nn12 (stereo not drawn) [Example 0088], the “Physical data (logP)” value was 4.37.

In the case of COCC(C)NC(=O)/C=C/c1c(-c2cccc(Cl)c2)nc2sc(C(F)(F)F)nn12 (stereo not drawn) [Example 0089], the “Physical data (logP)” value is reported as 3.46.

In the case of CC(C)C(C)NC(=O)/C=C/c1c(-c2cccc(Cl)c2)nc2sc(C(F)(F)F)nn12 (stereo not drawn) [Example 0094], the “Physical data (logP)” value is reported as 4.32.

In the case of CC(NC(=O)/C=C/c1c(-c2cccc(Cl)c2)nc2sc(C(F)(F)F)nn12)c1ccccc1 (stereo not drawn) [Example 0108], the “Physical data (logP)” value is reported as 4.37.

In the case of CC(COc1ccccc1)NC(=O)/C=C/c1c(-c2cccc(Cl)c2)nc2sc(C(F)(F)F)nn12 (stereo not drawn) [Example 0113], the “Physical data (logP)” value is reported as 4.56.

With CC(NC(=O)/C=C/c1c(-c2cccc(Cl)c2)nc2sc(C(F)(F)F)nn12)c1cccnc1 (stereo not drawn) [Example 0124] the “Physical data (logP)” value was 2.8.

In the case of O=C(/C=C/c1c(-c2cccc(Cl)c2)nc2sc(C(F)(F)F)nn12)NOCC1CC1 [Example 0130], the “Physical data (logP)” value is reported as 3.63.

For CC(ONC(=O)/C=C/c1c(-c2cccc(Cl)c2)nc2sc(C(F)(F)F)nn12)c1ccccc1 (stereo not drawn) [Example 0132], the “Physical data (logP)” value was 4.23.

With CCC(CC)NC(=O)/C=C/c1c(-c2cccc(Cl)c2)nc2sc(C(F)(F)F)nn12 [Example 0134] the “Physical data (logP)” value was 4.27.

With C=CCN(C)C(=O)/C=C/c1c(-c2cccc(Cl)c2)nc2sc(C(F)(F)F)nn12 [Example 0137] the “Physical data (logP)” value was 4.0.

For CC(C)CN(C)C(=O)/C=C/c1c(-c2cccc(Cl)c2)nc2sc(C(F)(F)F)nn12 [Example 0138], the “Physical data (logP)” value was 4.63.

For CCN(CC)C(=O)/C=C/c1c(-c2cccc(Cl)c2)nc2sc(C(F)(F)F)nn12 [Example 0140], the “Physical data (logP)” value was 4.28.

With O=C(/C=C/c1c(-c2cccc(Cl)c2)nc2sc(C(F)(F)F)nn12)N1CCCCC1 [Example 0141] the “Physical data (logP)” value was 4.37.

With CCNC(=O)/C=C/c1c(-c2ccccc2Cl)nc2sc(C(F)(F)F)nn12 [Example 0147] the “Physical data (logP)” value was 2.82.

With CC(C)(C)NC(=O)/C=C/c1c(-c2ccccc2Cl)nc2sc(C(F)(F)F)nn12 [Example 0150] the “Physical data (logP)” value was 3.72.

In the case of O=C(/C=C/c1c(-c2ccccc2Cl)nc2sc(C(F)(F)F)nn12)NC1CCCC1 [Example 0154], the “Physical data (logP)” value is reported as 3.55.

Source: patent US20090118286A1, “Heterobicyclic Acrylamides” (Bayer Cropscience AG, priority 2005, published 2009)
